Results taken from the supplement of paper PMC10627819.

How the values were obtained:
B. subtilis 168 [1] = assay: fitness (endpoint OD595 vs no drug) (fraction); higher = more growth
Outline: (§1)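 Cultures at OD595 0.01 were dispensed into 384-well plates in TSB, LB Lennox or CY and incubated at 37 °C. Every 30 min for 14 h, OD595 was read and corrected by the first reading. Fitness is the optical density at entry into stationary phase relative to the robust mean of no-drug control wells, capped at 1.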

S. aureus DSM 20231 [2] = assay: as above
Outline: as §1

S. aureus Newman [3] = assay: as above
Outline: as §1

S. pneumoniae D39V [4] = assay: as above
Outline: as §1

B. subtilis 168 [5] = assay: Bliss interaction score (quartile over a dose matrix) (fitness difference); higher = more antagonism (negative = synergy)
Outline: (§2)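 Values were capped at 1 after dividing OD595 at stationary-phase entry by the plate's robust no-drug mean. This ratio is fitness, and single-drug fitness was inferred from the combination data. The Bliss score is observed minus product-expected fitness, given as quartiles over technical, biological and donor/recipient replicates.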

S. aureus DSM 20231 [6] = assay: as above
Outline: as §2

S. aureus Newman [7] = assay: as above
Outline: as §2

S. pneumoniae D39V [8] = assay: as above
Outline: as §2
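Wherever Bliss interaction score (quartile over a dose matrix) is given: first quartile when negative (synergy) and third quartile when positive (antagonism).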

CO/N=C(\C(=O)N[C@@H]1C(=O)N2C(C(=O)O)=C(COC(C)=O)CS[C@H]12)c1csc(N)n1 [Cefotaxime] + Cc1onc(-c2ccccc2)c1C(=O)N[C@@H]1C(=O)N2[C@@H]1SC(C)(C)[C@@H]2C(=O)O [Oxacillin]
one replicate
Settings | fitness
B. subtilis 168 [1], first compound 0.00775 µg/mL, partner 0.0078 µg/mL | 0.82
B. subtilis 168 [1], first compound 0.00775 µg/mL, partner 0.0155 µg/mL | 0.789
B. subtilis 168 [1], first compound 0.00775 µg/mL, partner 0.031 µg/mL | 0.741
B. subtilis 168 [1], first compound 0.0155 µg/mL, partner 0.0078 µg/mL | 0.644
B. subtilis 168 [1], first compound 0.0155 µg/mL, partner 0.0155 µg/mL | 0.664
B. subtilis 168 [1], first compound 0.0155 µg/mL, partner 0.031 µg/mL | 0.548
B. subtilis 168 [1], first compound 0.031 µg/mL, partner 0.0078 µg/mL | 0.482
B. subtilis 168 [1], first compound 0.031 µg/mL, partner 0.0155 µg/mL | 0.537
B. subtilis 168 [1], first compound 0.031 µg/mL, partner 0.031 µg/mL | 0.395
B. subtilis 168 [1], first compound 0.0625 µg/mL, partner 0.075 µg/mL | 0.0512
B. subtilis 168 [1], first compound 0.0625 µg/mL, partner 0.15 µg/mL | 0.0585
B. subtilis 168 [1], first compound 0.0625 µg/mL, partner 0.3 µg/mL | 0.0527
B. subtilis 168 [1], first compound 0.125 µg/mL, partner 0.075 µg/mL | 0.0627
B. subtilis 168 [1], first compound 0.125 µg/mL, partner 0.15 µg/mL | 0.0636
B. subtilis 168 [1], first compound 0.125 µg/mL, partner 0.3 µg/mL | 0.0489
B. subtilis 168 [1], first compound 0.25 µg/mL, partner 0.075 µg/mL | 0.0575
B. subtilis 168 [1], first compound 0.25 µg/mL, partner 0.15 µg/mL | 0.0677
B. subtilis 168 [1], first compound 0.25 µg/mL, partner 0.3 µg/mL | 0.0596
S. aureus Newman [3], first compound 0.039 µg/mL, partner 0.0156 µg/mL | 0.689
S. aureus Newman [3], first compound 0.039 µg/mL, partner 0.0312 µg/mL | 0.662
S. aureus Newman [3], first compound 0.039 µg/mL, partner 0.0625 µg/mL | 0.629
S. aureus Newman [3], first compound 0.312 µg/mL, partner 0.0156 µg/mL | 0.317
S. aureus Newman [3], first compound 0.312 µg/mL, partner 0.0312 µg/mL | 0.224
S. aureus Newman [3], first compound 0.312 µg/mL, partner 0.0625 µg/mL | 0.181

Settings | fitness
B. subtilis 168 [1], first compound 0.5 µg/mL, partner 0.002 µg/mL | 0.272
B. subtilis 168 [1], first compound 0.5 µg/mL, partner 0.008 µg/mL | 0.249
B. subtilis 168 [1], first compound 1 µg/mL, partner 0.002 µg/mL | 0.158
B. subtilis 168 [1], first compound 1 µg/mL, partner 0.004 µg/mL | 0.118
B. subtilis 168 [1], first compound 1 µg/mL, partner 0.008 µg/mL | 0.133
B. subtilis 168 [1], first compound 2 µg/mL, partner 0.002 µg/mL | 0.115
B. subtilis 168 [1], first compound 2 µg/mL, partner 0.004 µg/mL | 0.114
B. subtilis 168 [1], first compound 2 µg/mL, partner 0.008 µg/mL | 0.113
S. aureus DSM 20231 [2], first compound 0.039 µg/mL, partner 0.0156 µg/mL | 0.696
S. aureus DSM 20231 [2], first compound 0.039 µg/mL, partner 0.0312 µg/mL | 0.624
S. aureus DSM 20231 [2], first compound 0.039 µg/mL, partner 0.0625 µg/mL | 0.632
S. aureus DSM 20231 [2], first compound 0.078 µg/mL, partner 0.0156 µg/mL | 0.681
S. aureus DSM 20231 [2], first compound 0.078 µg/mL, partner 0.0312 µg/mL | 0.655
S. aureus DSM 20231 [2], first compound 0.078 µg/mL, partner 0.0625 µg/mL | 0.639
S. aureus DSM 20231 [2], first compound 0.156 µg/mL, partner 0.0156 µg/mL | 0.599
S. aureus DSM 20231 [2], first compound 0.156 µg/mL, partner 0.0312 µg/mL | 0.623
S. aureus DSM 20231 [2], first compound 0.156 µg/mL, partner 0.0625 µg/mL | 0.655
S. aureus DSM 20231 [2], first compound 0.312 µg/mL, partner 0.0156 µg/mL | 0.593
S. aureus DSM 20231 [2], first compound 0.312 µg/mL, partner 0.0312 µg/mL | 0.594
S. aureus DSM 20231 [2], first compound 0.312 µg/mL, partner 0.0625 µg/mL | 0.478
S. aureus Newman [3], first compound 0.078 µg/mL, partner 0.0156 µg/mL | 0.745
S. aureus Newman [3], first compound 0.078 µg/mL, partner 0.0312 µg/mL | 0.627
S. aureus Newman [3], first compound 0.078 µg/mL, partner 0.0625 µg/mL | 0.531
S. aureus Newman [3], first compound 0.156 µg/mL, partner 0.0156 µg/mL | 0.6
S. aureus Newman [3], first compound 0.156 µg/mL, partner 0.0312 µg/mL | 0.555
S. aureus Newman [3], first compound 0.156 µg/mL, partner 0.0625 µg/mL | 0.38
S. aureus Newman [3], first compound 0.625 µg/mL, partner 0.0156 µg/mL | 0.0697
S. aureus Newman [3], first compound 0.625 µg/mL, partner 0.0312 µg/mL | 0.0379
S. aureus Newman [3], first compound 0.625 µg/mL, partner 0.0625 µg/mL | 0.0206
S. aureus Newman [3], first compound 1.25 µg/mL, partner 0.0156 µg/mL | 0.0601
S. aureus Newman [3], first compound 1.25 µg/mL, partner 0.0312 µg/mL | 0.0503
S. aureus Newman [3], first compound 1.25 µg/mL, partner 0.0625 µg/mL | 0.0594
S. aureus Newman [3], first compound 2.5 µg/mL, partner 0.0156 µg/mL | 0.0599
S. aureus Newman [3], first compound 2.5 µg/mL, partner 0.0312 µg/mL | 0.0551
S. aureus Newman [3], first compound 2.5 µg/mL, partner 0.0625 µg/mL | 0.0574
S. pneumoniae D39V [4], first compound 0.0018 µg/mL, partner 0.005 µg/mL | 0.999
S. pneumoniae D39V [4], first compound 0.0018 µg/mL, partner 0.01 µg/mL | 0.983
S. pneumoniae D39V [4], first compound 0.0018 µg/mL, partner 0.02 µg/mL | 0.937
S. pneumoniae D39V [4], first compound 0.0018 µg/mL, partner 0.04 µg/mL | 0.345
S. pneumoniae D39V [4], first compound 0.0035 µg/mL, partner 0.005 µg/mL | ≥ 1
S. pneumoniae D39V [4], first compound 0.0035 µg/mL, partner 0.01 µg/mL | 0.979
S. pneumoniae D39V [4], first compound 0.0035 µg/mL, partner 0.02 µg/mL | 0.874
S. pneumoniae D39V [4], first compound 0.0035 µg/mL, partner 0.04 µg/mL | 0.189
S. pneumoniae D39V [4], first compound 0.007 µg/mL, partner 0.005 µg/mL | 0.979
S. pneumoniae D39V [4], first compound 0.007 µg/mL, partner 0.04 µg/mL | 0.0612

Settings | Bliss interaction score
B. subtilis 168 [5] | 0.0466
S. aureus DSM 20231 [6] | 0.0453
S. aureus Newman [7] | 0.0747
S. pneumoniae D39V [8] | -0.116
